Experiments:
Volatility = assay type: physicochemical
ethylene responses = experiment: Anti-ethylene activity when applied as a gas; assay type: in vivo
pea plants = experiment: Effect on etiolated pea plant growth in the presence of ethylene; assay type: in vivo; conditions: pea plants grown in the presence of 1 ppm of ethylene, FIG. 1
Description: FIG. 1. Effect of 1,6-dicyclopropenyl-hexane on etiolated plea plant growth.

bananas = experiment: Protection of bananas from ethylene responses; assay type: in vivo, banana

- volatility (Volatility): volatile
Compound: C1=C(CCCCCCC2=CC2)C1 [1,6-dicyclopropenyl-hexane]
- active concentration (ethylene responses; applied as a gas): 0.3 nL L^−1
- efficiency at different temperatures (ethylene responses; in vivo): work efficiently at different temperatures
- anti-ethylene activity (pea plant growth) (pea plants): significant anti-ethylene activity
- duration of protection from ethylene responses (bananas): at least 42 days

Reference: patent publication US20140057788A1, “METHODS OF INHIBITING ETHYLENE RESPONSES IN PLANTS USING DICYCLOPROPENE COMPOUNDS” (North Carolina State University, priority 2007, published 2014)
